Tests used:
[1] = system: Pseudomonas aeruginosa ATCC 25619; assay: MIC and MBC/MFC by broth microdilution; type: cell-based; conditions: P. aeruginosa ATCC 25619
Description: (§1) Reference strains of bacteria and fungi: Staphylococcus aureus ATCC 29213, Staphylococcus epidermidis ATCC 12228, Enterococcus faecalis ATCC 29212, Pseudomonas aeruginosa ATCC 25619, Proteus vulgaris ATCC 8427, and Candida albicans ATCC 10231 (Manassas, VA, USA) were used to screen the antimicrobial activity of the arene-ruthenium(II) complexes 3a-3d, NH4PF6 and selected antibiotics. The microorganisms were grown for 24 h (bacteria) or 48 h (fungi) in 35-37 °C in tryptic-soy agar (TSA; BTL Sp. z o.o., Łódź, Poland) or Sabouraud's dextrose agar (SDA; BTL Sp. z o.o., Łódź, Poland) according to nutritional requirements. Microbial suspensions at a density of about 5 × 10^5 CFU/mL were prepared in Mueller-Hinton broth (MHB; BTL Sp. z o.o., Łódź, Poland) or RPMI-1640 medium (Sigma, St. Louis, MO, USA) for bacteria and fungi, respectively. […] Louis, MO, USA). Stock solutions of the lyophilized compounds were freshly prepared in 100% DMSO (POCh, Gliwice, Poland) for the complexes, or in water for injection (Sigma, St. Louis, MO, USA) in the case of antibiotics. […] MIC and MBC/MFC were defined as the lowest concentrations of the compounds inhibiting bacterial/fungal growth or able to kill added microbial inoculum, respectively, and were evaluated as described by […] et al.. Experiments were carried out in duplicate.

[2] = system: Proteus vulgaris ATCC 8427; assay: MIC and MBC/MFC by broth microdilution; type: cell-based; conditions: P. vulgaris ATCC 8427
Description: as §1

[3] = system: Staphylococcus epidermidis ATCC 12228; assay: MIC and MBC/MFC by broth microdilution; type: cell-based; conditions: S. epidermidis ATCC 12228
Description: as §1

[4] = system: Staphylococcus aureus ATCC 29213; assay: MIC and MBC/MFC by broth microdilution; type: cell-based; conditions: S. aureus ATCC 29213
Description: as §1

[5] = system: S. epidermidis ATCC 12228; assay: Synergy with oxacillin and vancomycin, partial checkerboard broth microdilution; type: cell-based, Staphylococcus epidermidis; conditions: S. epidermidis ATCC 12228; for FIC (Oxa) / FIC (Van): MIC antibiotic in combination/MIC antibiotic alone; for MIC Oxa in Combination: oxacillin with the complex at ½ MIC (NH4PF6 250 µg/mL); for MIC Van in Combination: vancomycin with the complex at ½ MIC (NH4PF6 250 µg/mL)
S. aureus ATCC 29213 = assay: as above; type: cell-based, Staphylococcus aureus; conditions: S. aureus ATCC 29213; for FIC (Oxa) / FIC (Van): MIC antibiotic in combination/MIC antibiotic alone; for MIC Oxa in Combination: oxacillin with the complex at ½ MIC (NH4PF6 250 µg/mL); for MIC Van in Combination: vancomycin with the complex at ½ MIC (NH4PF6 250 µg/mL)

| Molecule | MBC/MFC [1] [µg/mL] | MIC [1] [µg/mL] | MBC/MFC [2] [µg/mL] | MIC [2] [µg/mL] | MBC/MFC [3] [µg/mL] | MIC [3] [µg/mL] | MBC/MFC [4] [µg/mL] | MIC [4] [µg/mL] | FIC (Oxa) [5] | FIC (Van) [5] | MIC Oxa in Combination [5] [µg/mL] | MIC Van in Combination [5] [µg/mL] | FIC (Oxa) (S. aureus ATCC 29213) | FIC (Van) (S. aureus ATCC 29213) | MIC Oxa in Combination (S. aureus ATCC 29213) [µg/mL] | MIC Van in Combination (S. aureus ATCC 29213) [µg/mL] | Correlation with Oxa and Van (synergy), in words [5] | Correlation with Oxa and Van (synergy), in words (S. aureus ATCC 29213) |
| --- | --- | --- | --- | --- | --- | --- | --- | --- | --- | --- | --- | --- | --- | --- | --- | --- | --- | --- |
| Cc1cc(C)[n+]2n1C(N)=[S+][Ru-]2[Cl].Cc1ccc(C(C)C)cc1.F[P-](F)(F)(F)(F)F [Compound 3a] | >1000 | >1000 | >1000 | >1000 | 125 | 125 | 62.5 | 62.5 | 0.06 | 0.03 | 0.015 | 0.015 | 1 | 1 | 0.250 | 0.50 | – | – |
| CCc1cc(CC)[n+]2n1C(N)=[S+][Ru-]2[Cl].Cc1ccc(C(C)C)cc1.F[P-](F)(F)(F)(F)F [Compound 3b] | >1000 | >1000 | >1000 | >1000 | 62.5 | 31.2 | 62.5 | 62.5 | 0.06 | 0.03 | 0.015 | 0.015 | 0.5 | 0.25 | 0.125 | 0.125 | synergistic effect in all tested configurations | synergistic effects |
| [(η^6-p-cymene)Ru(1-[amino(thioxo)methyl]-5-hydroxy-3-phenyl-1H-pyrazole)PF6 [Compound 3c] | >1000 | >1000 | >1000 | >1000 | 31.2 | 31.2 | 31.2 | 15.6 | 0.06 | 0.03 | 0.015 | 0.015 | 1 | 1 | 0.250 | 0.50 | – | – |

From publication PMC8781304, “Arene-Ruthenium(II) Complexes with Carbothiamidopyrazoles as a Potential Alternative for Antibiotic Resistance in Human” (Molecules, 2022)
